Results from US20050260181A1, “Compositions and methods for tissue repair” (Immunopath Profile, Inc., priority 2004, published 2005).
Where two headings read alike, the source gives them in different places.

How the values were obtained:
[1] = rats orally; cited from earlier work
[2] = test system: T47D breast cancer tissue cells; test: MTS breast cancer mitochondrial activity assay; format: cell-based; conditions: for MTS suppression ratio (mean OD treated / mean OD control), 24 h: culture time 24 h; for MTS suppression ratio (mean OD treated / mean OD control), 24 h / MTS suppression ratio (mean OD treated / mean OD control), 48 h: 1.0 = no effect; for MTS suppression ratio (mean OD treated / mean OD control), 48 h: culture time 48 h
Procedure: In addition to and equal to the effects of high HLB surfactants for comparative testing. These comparative studies were performed and results are reported in the above table. Metabolism was comparatively measured with controls and other extracts as to the reduction of mitochondrial activity, (MTS). This compound is a substrate for the mitochondrial enzymes—and is reduced to a blue formazan product.
In the first experiments—The extracted therapeutic test agents were derived from specified tissue. Water extracts of the crushed tissue, were also prepared. For the later experiments, specific varieties of extracts were prepared and examined: Cells were obtained from American Type Culture Collection (ATCC, Washington, D.C.) and were cultured as recommended by ATCC. Experiments were performed in 96 well microtiter plates. Each well contained 1.0×10^4 cells suspended in a total volume of […]. Test wells contained the designated amount of extract in cell culture medium. Control wells contained the same amount of extract solvent in medium. Plates were incubated in an atmosphere of 5% C02 for 24 or 48 hours with extract or solvent. At this time, […] were added to each well and incubation was continued for an additional 4 hours after which time the optical density (OD) at […] of each well was recorded. In each experiment, each sample was assayed in triplicate and the mean optical density (OD) for the three wells containing the same culture was calculated.
Data are presented as suppression ratios. The suppression ratio defined here as the mean optical density (OD) for the wells containing extract divided by the mean optical density (OD) for the control wells.
The purpose of the work was to determine which therapeutic agent extracts (further separated by chromatography) explored through this methodology for anti-cancer activity. The data presented here represents semi-quantitative anti-cancer screening tests. Extracts with ratios in the range 0.51-0.74 were considered moderately active and therefore appropriate for considered use along with preventive anti-cancer treatment and active anti-cancer treatment. In co-use with anti-cancer treatment and radiation treatment, may lessen the dose and the side effects of these current therapeutic agents. Extracts with metabolism suppression ratios less than or equal to 0.5 represented a suppression of metabolism of at least 50% or greater than that of the controls and were considered definitely active potential anti-cancer agents, as was the case of High HLB Tween 80 with ethylene maturation apoptosis promoting factor with a 76% suppression of mitochondrial metabolism of cancer cells.

[3] = Circulation, blood viscosity and sedimentation rate with intermediate HLB lipid; format: in vivo; conditions: HLB 8 to 11
Description: The amount of surface-active polar lipid to include in the composition can be determined by viscosity measurements. Tissue concentration can be measured by viscosity (as used in blood serum which normally is 1.12 to 1.22 centipoise with upper limit of three). In the case of the intermediate HLB 8 to 11 (as exemplified by PC phosphatidylcholine when so used) circulation is improved 25% however there is no change in viscosity or the red blood cell sedimentation rate at these HLB ranges because of the fact that biophysical functional effects is upon the cell membrane. With its use the red cell membrane becomes more plastic, and is made more pliable thereby enhancing circulation and oxygenation.
Component No. 2 contains self-vesiculating essence of HLB 8 to 11 or 12, ideally 10 to 11, cell membrane forming and repairing liquid crystal phosphatidylcholine (PC), thereby increasing pliability of the red cell, blood vessel and endothelial membrane enhancing circulatory function by 25%. Component No. 2 optionally contains high HLB surfactants with packing parameters that not only enhance biologic function and efficiency of protein enzymes and their substrate but also promotes protein refolding and thereby normalizing biologic function. This helps to normalize the biologic function of disease promoting protein structures of Alzheimer's disease, Parkinson's disease, and Mad Cow disease. […]

[4] = rats and mice; cited from earlier work

Row | Compound | LD 50 [1] | MTS suppression ratio (mean OD treated / mean OD control), 24 h ([2]; T47D cells) | MTS suppression ratio (mean OD treated / mean OD control), 48 h ([2]; T47D cells) | improvement of circulation / circulatory function [3] | LD 50 [4] | suppression of mitochondrial metabolism of cancer cells [2] | % normalization of Breast cancer cells ([2]; T47D cells)
1 | CCCCCCCCCCCCOS(=O)(=O)[O-].[Na+] [sodium lauryl sulfate] | 1288 mg per kilogram |  |  |  |  |  | 
2 | phosphatidylcholine [PC] |  | 0.92 | 0.98 | 25% |  |  | 
3 | polyglycerol polyricinolate [PGPR] |  |  |  |  | 7.5 ml per kilogram |  | 
4 | polyoxyethylene Sorbitan Monooleate [Tween 80] |  | 0.48 | 0.24 |  | 7.5 ml per kilogram | 76% | 76%
